In patent US11034692B1 (Genentech, Inc., priority 2017, dated 2021):
pKi: −log10 of the molar value.

These compounds were tested against HPK1 (assay: HPK1 Lantha Binding Assay ("Lanth")). Settings: Table B1-1, read-out: HPK1 Ki (μM) (Lanth).
Procedure, shortened: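 Compounds in an 11-point 5-fold series were preincubated 1 h at 23 C with 2 nM kinase plus 2 nM Eu-anti-GST antibody. Then 15 nM Tracer222 was added for another hour, and time-resolved FRET was read at 665/615 nm. Ki values come from a Morrison tight-binding model that uses the tracer Kd.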

Compound	Ki [nM]
N#C[C@@H]1C[C@H]1C(=O)Nc1cc2cc(-c3cnccc3-c3cn[nH]c3)nc(N)c2cn1 [Compound 235, (1R,2R)—N-(6-(4-(1H-pyrazol-4-yl)pyridin-3-yl)-8-amino-2,7-naphthyridin-3-yl)-2-cyanocyclopropanecarboxamide]	0.706
Cc1ccncc1-c1cc2cc(Nc3cnn(CC(F)F)c3)ncc2c(N)n1 [Compound 257, 6-N-[1-(2,2-difluoroethyl)-1H-pyrazol-4-yl]-3-(4-methylpyridin-3-yl)-2,7-naphthyridine-1,6-diamine]	1.01
Cc1ccncc1-c1cc2cc(NC(=O)[C@H]3C[C@@H]3C3CCOCC3)ncc2c(N)n1 [Compound 324, (1S,2R)—N-[8-amino-6-(4-methylpyridin-3-yl)-2,7-naphthyridin-3-yl]-2-(oxan-4-yl)cyclopropane-1-carboxamide]	0.48
Nc1nc(-c2cnccc2CO)cc2cc(NC(=O)[C@@H]3C[C@@H]3F)ncc12 [Compound 44, (1S,2S)—N-(8-amino-6-(4-(hydroxymethyl)pyridin-3-yl)-2,7-naphthyridin-3-yl)-2-fluorocyclopropanecarboxamide]	48
Cn1cc(-c2cc3cc(NC(=O)[C@@H]4C[C@@H]4F)ncc3c(N)n2)cn1 [Compound 7, (1S,2S)—N-(8-amino-6-(1-methyl-1H-pyrazol-4-yl)-2,7-naphthyridin-3-yl)-2-fluorocyclopropanecarboxamide]	2.89
Cc1cc(CO)ncc1-c1cc2cc(NC(=O)C3CC3)ncc2c(N)n1 [Compound 25, N-(8-amino-6-(6-(hydroxymethyl)-4-methylpyridin-3-yl)-2,7-naphthyridin-3-yl)cyclopropanecarboxamide]	1.54
Cc1ccncc1-c1cc2cc(Nc3ccc(CS(N)(=O)=O)cc3)ncc2c(N)n1 [Compound 264, (4-[[8-Amino-6-(4-methylpyridin-3-yl)-2,7-naphthyridin-3-yl]amino]phenyl)methanesulfonamide]	0.134
Cc1ccncc1-c1nc(N)c2cnc(NC(=O)[C@@H]3C[C@H]3c3cnn(C)c3)cc2c1Cl [Compound 234, (1R,2R)—N-(8-amino-5-chloro-6-(4-methylpyridin-3-yl)-2,7-naphthyridin-3-yl)-2-(1-methyl-1H-pyrazol-4-yl)cyclopropanecarboxamide]	0.078
Cc1ccncc1-c1cc2cc(NC(=O)[C@H]3C[C@@H]3CC#N)ncc2c(N)n1 [Compound 193, (1S,2R)—N-(8-amino-6-(4-methylpyridin-3-yl)-2,7-naphthyridin-3-yl)-2-(cyanomethyl)cyclopropane-1-carboxamide]	0.135
Cc1ccncc1-c1nc(N)c2cnc(NC(=O)Nc3cnn(C)c3)cc2c1F [Compound 162, 1-[8-amino-5-fluoro-6-(4-methyl-3-pyridyl)-2,7-naphthyridin-3-yl]-3-(1-methylpyrazol-4-yl)urea]	3.2
CCc1ccncc1-c1cc2cc(NC(=O)NC(C)C)ncc2c(N)n1 [Compound 31, 1-[8-amino-6-(4-ethyl-3-pyridyl)-2,7-naphthyridin-3-yl]-3-isopropyl-urea]	3.9
Cc1ccc(C#N)cc1-c1cc2cc(NC(=O)[C@@H]3C[C@H]3c3cnn(C)c3)ncc2c(N)n1 [Compound 300, (1R,2R)—N-[8-amino-6-(5-cyano-2-methylphenyl)-2,7-naphthyridin-3-yl]-2-(1-methyl-1H-pyrazol-4-yl)cyclopropane-1-carboxamide]	1.36
Cc1ccncc1-c1cc2cc(NC(=O)[C@H]3[C@@H]4CN(S(C)(=O)=O)C[C@@H]43)ncc2c(N)n1 [Compound 151, exo-N-[8-amino-6-(4-methyl-3-pyridyl)-2,7-naphthyridin-3-yl]-3-methylsulfonyl-3-azabicyclo [3.1.0]hexane-6-carboxamide]	15
COCCn1cc([C@@H]2C[C@H]2C(=O)Nc2cc3cc(-c4cnccc4C)nc(N)c3cn2)cn1 [Compound 330, (1R,2R)—N-(8-amino-6-(4-methylpyridin-3-yl)-2,7-naphthyridin-3-yl)-2-(1-(2-methoxyethyl)-1H-pyrazol-4-yl)cyclopropanecarboxamide]	< 0.02
Cc1ccncc1-c1cc2cc(NC(=O)[C@@H]3C[C@H]3C#N)ncc2c(N)n1 [Compound 203, (1R,2R)—N-(8-amino-6-(4-methylpyridin-3-yl)-2,7-naphthyridin-3-yl)-2-cyanocyclopropane-1-carboxamide]	0.4
N#CC[C@@H]1C[C@H]1C(=O)Nc1cc2cc(-c3c(Cl)cccc3Cl)nc(N)c2cn1 [Compound 311, (1R,2S)—N-(8-amino-6-(2,6-dichlorophenyl)-2,7-naphthyridin-3-yl)-2-(cyanomethyl)cyclopropanecarboxamide]	1.15

Compound	Ki [nM]
N#CC[C@H]1C[C@@H]1C(=O)Nc1cc2cc(-c3c(Cl)cccc3Cl)nc(N)c2cn1 [Compound 310, (1S,2R)—N-(8-amino-6-(2,6-dichlorophenyl)-2,7-naphthyridin-3-yl)-2-(cyanomethyl)cyclopropanecarboxamide]	0.0675
CCc1c(-c2cnccc2C)nc(N)c2cnc(NC(=O)[C@@H]3C[C@H]3CC#N)cc12 (stereo in doubt) [Compound 271, (1R,2S)—N-[8-amino-5-ethyl-6-(4-methylpyridin-3-yl)-2,7-naphthyridin-3-yl]-2-(cyanomethyl)cyclopropane-1-carboxamide]	0.768
Cc1ccncc1-c1cc2cc(Nc3ccc(N4CCNCC4=O)cc3)ncc2c(N)n1 [Compound 265, 1-(4-[[8-amino-6-(4-methylpyridin-3-yl)-2,7-naphthyridin-3-yl]amino]phenyl)piperazin-2-one]	0.249
COCCN1CC(NC(=O)Nc2cc3cc(-c4cnccc4C)nc(N)c3cn2)C1 [Compound 174, 1-(8-amino-6-(4-methylpyridin-3-yl)-2,7-naphthyridin-3-yl)-3-(1-(2-methoxyethyl)azetidin-3-yl)urea]	2.5
N#C[C@@H]1C[C@H]1C(=O)Nc1cc2cc(-c3cnccc3-c3cc[nH]n3)nc(N)c2cn1 [Compound 243, (1R,2R)—N-(6-(4-(1H-pyrazol-3-yl)pyridin-3-yl)-8-amino-2,7-naphthyridin-3-yl)-2-cyanocyclopropanecarboxamide]	1.37
Cc1ccncc1-c1nc(N)c2cnc(NC(=O)C3CC3)cc2c1-c1cn[nH]c1 [Compound 258, N-(8-amino-6-(4-methylpyridin-3-yl)-5-(1H-pyrazol-4-yl)-2,7-naphthyridin-3-yl)cyclopropanecarboxamide]	0.695
Cc1c(N)cncc1-c1cc2cc(NC(=O)[C@@H]3C[C@H]3CC#N)ncc2c(N)n1 [Compound 248, (1R,2S)—N-[8-amino-6-(5-amino-4-methylpyridin-3-yl)-2,7-naphthyridin-3-yl]-2-(cyanomethyl)cyclopropane-1-carboxamide]	1.03
CCc1ccncc1-c1cc2cc(NS(=O)(=O)C3CC3)ncc2c(N)n1 [Compound 79, Cyclopropanesulfonic acid [8-amino-6-(4-ethylpyridin-3-yl)-[2,7]naphthyridin-3-yl]amide]	839
CC(=O)Nc1cc2c(F)c(-c3cnccc3C)nc(N)c2cn1 [Compound 156, N-(8-amino-5-fluoro-6-(4-methylpyridin-3-yl)-2,7-naphthyridin-3-yl)acetamide]	21
CCc1ccncc1-c1cc2cc(NC(=O)C3=CC3)ncc2c(N)n1 [Compound 68, N-[8-amino-6-(4-ethyl-3-pyridyl)-2,7-naphthyridin-3-yl]cyclopropene-1-carboxamide]	545
Cc1ccncc1-c1nc(N)c2cnc(NC(=O)[C@@H]3C[C@H]3CC#N)cc2c1Cl [Compound 269, (1R,2S)—N-[8-amino-5-chloro-6-(4-methylpyridin-3-yl)-2,7-naphthyridin-3-yl]-2-(cyanomethyl)cyclopropane-1-carboxamide]	2.3
CCc1ccncc1-c1cc2cc(NC(=O)C3CCC3)ncc2c(N)n1 [Compound 20, N-[8-amino-6-(4-ethyl-3-pyridyl)-2,7-naphthyridin-3-yl]cyclobutanecarboxamide]	3.22
Cc1ccncc1-c1cc2cc(NC(=O)C3CC3(C)CO)ncc2c(N)n1 (centres unmarked) [Compound 209, N-(8-amino-6-(4-methylpyridin-3-yl)-2,7-naphthyridin-3-yl)-2-(hydroxymethyl)-2-methylcyclopropanecarboxamide]	30.7
Cc1ccncc1-c1cc2cc(Nc3cnn(C(C)(C)CO)c3)ncc2c(N)n1 [Compound 266, 2-(4-[[8-amino-6-(4-methylpyridin-3-yl)-2,7-naphthyridin-3-yl]amino]-1H-pyrazol-1-yl)-2-methylpropan-1-ol]	0.118
Cc1ccncc1-c1cc2cc(NC(=O)[C@H]3CC[C@H]3C)ncc2c(N)n1 [Compound 321, (1S,2R)—N-(8-amino-6-(4-methylpyridin-3-yl)-2,7-naphthyridin-3-yl)-2-methylcyclobutanecarboxamide]	57.4
CCc1ccncc1-c1cc2cc(Nc3ccn(C)n3)ncc2c(N)n1 [Compound 76, 3-(4-Ethylpyridin-3-yl)-N6-(1-methyl-1H-pyrazol-3-yl)-[2,7]naphthyridine-1,6-diamine]	1.3

Same assay, conditions: Table B1-2, read-out: HPK1 Ki, L = Lanth

Compound	pKi
Cc1cccc(F)c1-c1cc2cc(NC(=O)[C@H]3[C@@H](C)[C@@H]3c3cnn(C)c3)ncc2c(N)n1 [Compound 355, (1S,2S,3S)—N-[8-amino-6-(2-fluoro-6-methylphenyl)-2,7-naphthyridin-3-yl]-2-methyl-3-(1-methyl-1H-pyrazol-4-yl)cyclopropane-1-carboxamide]	8.74
Cc1cccc(F)c1-c1cc2cc(Nc3cc4n(n3)CC(=O)N(C)CC4)ncc2c(N)n1 [Compound 426, 2-((8-amino-6-(2-fluoro-6-methylphenyl)-2,7-naphthyridin-3-yl)amino)-6-methyl-5,6-dihydro-4H-pyrazolo[1,5-d][1,4]diazepin-7(8H)-one]	10.70
Cc1ccncc1-c1cc2cc(NC(=O)[C@H]3[C@@H]4CC(NS(C)(=O)=O)C[C@@H]43)ncc2c(N)n1 (some centres unmarked) [Compound 412, N-(8-amino-6-(4-methylpyridin-3-yl)-2,7-naphthyridin-3-yl)-3-(methylsulfonamido)bicyclo[3.1.0]hexane-6-carboxamide]	7.02
